From US9376418B2, “Substituted pyridine spleen tyrosine kinase (SYK) inhibitors” (Merck Sharp & Dohme Corp., priority 2012, dated 2016)
pIC50: −log10 of the molar value.

Molecular target: T1, recombinant human GST-SYK (Homo sapiens, UniProt P43405)
T1 construct: purchased Carna Biosciences 08-176
Test: Homogeneous Time-Resolved Fluorescence (HTRF) assay for the recombinant human Syk enzyme
Format: biochemical
Conditions: HTRF assay, recombinant human GST-SYK; IC50 given as class symbols; read-out: rhSYK Activity
Method in brief: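 GST-hSYK ([…]) was preincubated with inhibitor (0.1% DMSO final) for 10 minutes at room temperature in 15 mM Tris-HCl pH 7.5, 0.01% tween 20, 2 mM DTT. Biotinylated peptide (250 nM), 5 mM magnesium and 25 μM ATP started a 45-minute room-temperature reaction, read by time-resolved fluorescence.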

SMILES | pIC50
Cc1cc(Nc2nccc(C(F)(F)F)n2)cc(-c2ccc(C(=O)N3CC(=O)NC(=O)C3)nc2)c1 [Example 16.18, 4-{[5-(3-methyl-5-{[4-(trifluoromethyl)pyrimidin-2-yl]amino}phenyl)pyridin-2-yl]carbonyl}piperazine-2,6-dione] | > 7.00
Cc1cc(Nc2nccc(C(F)(F)F)n2)cc(-c2ccc(C(=O)N3CCN(C)C(=O)C3)nc2)c1 [Example 16.20, 1-methyl-4-{[5-(3-methyl-5-{[4-(trifluoromethyl)pyrimidin-2-yl]amino}phenyl)pyridin-2-yl]carbonyl}piperazin-2-one] | > 7.00
Cc1cc(Nc2nccc(C(F)(F)F)n2)cc(-c2ccc(C(=O)NC3(CO)CCCC3)nc2)c1 [Example 16.21, N-[1-(hydroxymethyl)cyclopentyl]-5-(3-methyl-5-{[4-(trifluoromethyl)pyrimidin-2-yl]amino}phenyl)pyridin-2-carboxamide] | 6.00 to 7.00
C=C(F)CNC(=O)c1ccc(-c2cc(C)cc(Nc3nccc(C(F)(F)F)n3)c2)cn1 [Example 16.28, N-(2-fluoroprop-2-en-1-yl)-5-(3-methyl-5-{[4-(trifluoromethyl)pyrimidin-2-yl]amino}phenyl)pyridine-2-carboxamide] | 6.00 to 7.00
Cc1cc(Nc2nccc(C(F)(F)F)n2)cc(-c2ccc(C(=O)Nc3cncnc3)nc2)c1 [Example 16.29, 5-(3-methyl-5-{[4-(trifluoromethyl)pyrimidin-2-yl]amino}phenyl)-N-pyrimidin-5-ylpyridine-2-carboxamide] | 6.00 to 7.00
Cc1cc(Nc2nccc(C(F)(F)F)n2)cc(-c2ccc(C(=O)NCC3CCC(=O)N3)nc2)c1 (stereo not drawn) [Example 16.30, 5-(3-methyl-5-{[4-(trifluoromethyl)pyrimidin-2-yl]amino}phenyl)-N-[(5-oxopyrrolidin-2-yl)methyl]pyridine-2-carboxamide] | > 7.00
Cc1cc(Nc2nccc(C(F)(F)F)n2)cc(-c2ccc(C(=O)NCC3COCCO3)nc2)c1 (stereo not drawn) [Example 16.31] | 6.00 to 7.00
Cc1cc(Nc2nccc(C(F)(F)F)n2)cc(-c2ccc(C(=O)N3CCn4ccnc4C3)nc2)c1 [Example 16.32, N-{3-[6-(5,6-dihydroimidazo[1,2-a]pyrazin-7(8H)-ylcarbonyl)pyridin-3-yl]-5-methylphenyl}-4-(trifluoromethyl)pyrimidin-2-amine] | > 7.00
Cc1cc(Nc2nccc(C(F)(F)F)n2)cc(-c2ccc(C(=O)NC3CCOC3)nc2)c1 (stereo not drawn) [Example 16.33, 5-(3-methyl-5-{[4-(trifluoromethyl)pyrimidin-2-yl]amino}phenyl)-N-(tetrahydrofuran-3-yl)pyridine-2-carboxamide] | 6.00 to 7.00
COC1CN(C(=O)c2ccc(-c3cc(C)cc(Nc4nccc(C(F)(F)F)n4)c3)cn2)C1 [Example 16.34, N-(3-{6-[(3-methoxyazetidin-1-yl)carbonyl]pyridin-3-yl}-5-methylphenyl)-4-(trifluoromethyl)pyrimidin-2-amine] | 6.00 to 7.00
Cc1cc(Nc2nccc(C(F)(F)F)n2)cc(-c2ccc(C(=O)NCC(O)CCCl)nc2)c1 (stereo not drawn) [Example 16.35, N-(4-chloro-2-hydroxybutyl)-5-(3-methyl-5-{[4-(trifluoromethyl)pyrimidin-2-yl]amino}phenyl)pyridine-2-carboxamide] | 6.00 to 7.00
Cc1cc(Nc2nccc(C(F)(F)F)n2)cc(-c2ccc(C(=O)N3CCOC(CCO)C3)nc2)c1 (stereo not drawn) [Example 16.37, 2-(4-{[5-(3-methyl-5-{[4-(trifluoromethyl)pyrimidin-2-yl]amino}phenyl)pyridin-2-yl]carbonyl}morpholin-2-yl)ethanol] | > 7.00
COCC1CN(C(=O)c2ccc(-c3cc(C)cc(Nc4nccc(C(F)(F)F)n4)c3)cn2)CCO1 (stereo not drawn) [Example 16.39, N-[3-(6-{[2-(methoxymethyl)morpholin-4-yl]carbonyl}pyridin-3-yl)-5-methylphenyl]-4-(trifluoromethyl)pyrimidin-2-amine] | > 7.00
Cc1cc(Nc2nccc(C(F)(F)F)n2)cc(-c2ccc(C(=O)N3C[C@H]4C[C@@H]3CO4)nc2)c1 [Example 16.40, N-(3-methyl-5-{6-[(1R,4R)-2-oxa-5-azabicyclo[2.2.1]hept-5-ylcarbonyl]pyridin-3-yl}phenyl)-4-(trifluoromethyl)pyrimidin-2-amine] | > 7.00
Cc1cc(Nc2nccc(C(F)(F)F)n2)cc(-c2ccc(C(=O)N3C[C@H](O)C[C@H]3C)nc2)c1 [Example 16.41, (3R,5R)-5-methyl-1-{[5-(3-methyl-5-{[4-(trifluoromethyl)pyrimidin-2-yl]amino}phenyl)pyridin-2-yl]carbonyl}pyrrolidin-3-ol] | > 7.00

Results, then the molecule that gave them:

pIC50 | SMILES
> 7.00 | Cc1cc(Nc2nccc(C(F)(F)F)n2)cc(-c2ccc(C(=O)N3CCNC(=O)CC3)nc2)c1 [Example 16.19, 1-{[5-(3-methyl-5-{[4-(trifluoromethyl)pyrimidin-2-yl]amino}phenyl)pyridin-2-yl]carbonyl}-1,4-diazepan-5-one]
6.00 to 7.00 | Cc1cc(Nc2nccc(C(F)(F)F)n2)cc(-c2ccc(C(=O)NC(C)c3ccccn3)nc2)c1 (stereo not drawn) [Example 16.22, 5-(3-methyl-5-{[4-(trifluoromethyl)pyrimidin-2-yl]amino}phenyl)-N-(1-pyridin-2-ylethyl)pyridine-2-carboxamide]
6.00 to 7.00 | Cc1cc(Nc2nccc(C(F)(F)F)n2)cc(-c2ccc(C(=O)N3CCN(C)C(=O)C3C)nc2)c1 (stereo not drawn) [Example 16.23, 1,3-dimethyl-4-{[5-(3-methyl-5-{[4-(trifluoromethyl)pyrimidin-2-yl]amino}phenyl)pyridin-2-yl]carbonyl}piperazin-2-one]
> 7.00 | CC(=O)N1CCN(C(=O)c2ccc(-c3cc(C)cc(Nc4nccc(C(F)(F)F)n4)c3)cn2)CC1 [Example 16.24, N-(3-{6-[(4-acetylpiperazin-1-yl)carbonyl]pyridin-3-yl}-5-methylphenyl)-4-(trifluoromethyl)pyrimidin-2-amine]
6.00 to 7.00 | Cc1cc(Nc2nccc(C(F)(F)F)n2)cc(-c2ccc(C(=O)N(C)CCC3OCCO3)nc2)c1 [Example 16.25, N-[2-(1,3-dioxolan-2-yl)ethyl]-N-methyl-5-(3-methyl-5-{[4-(trifluoromethyl)pyimidin-2-yl]amino}phenyl)pyridine-2-carboxamide]
> 7.00 | Cc1cc(Nc2nccc(C(F)(F)F)n2)cc(-c2ccc(C(=O)NC3CCNC3=O)nc2)c1 (stereo not drawn) [Example 16.26, 5-(3-methyl-5-{[4-(trifluoromethyl)pyrimidin-2-yl]amino}phenyl)-N-(2-oxopyrrolidin-3-yl)pyridine-2-carboxamide]
6.00 to 7.00 | Cc1cc(Nc2nccc(C(F)(F)F)n2)cc(-c2ccc(C(=O)NCc3ncnn3C)nc2)c1 [Example 16.27, N-[(1-methyl-1H-1,2,4-triazol-5-yl)methyl]-5-(3-methyl-5-{[4-(trifluoromethyl)pyrimidin-2-yl]amino}phenyl)pyridine-2-carboxamide]
6.00 to 7.00 | Cc1cc(Nc2nccc(C(F)(F)F)n2)cc(-c2ccc(C(=O)N(C)C(C3CC3)C3CC3)nc2)c1 [Example 16.36, N-(dicyclopropylmethyl)-N-methyl-5-(3-methyl-5-{[4-(trifluoromethyl)pyrimidin-2-yl]amino}phenyl)pyridine-2-carboxamide]
6.00 to 7.00 | Cc1cc(Nc2nccc(C(F)(F)F)n2)cc(-c2ccc(C(=O)N(C)CC3COCCO3)nc2)c1 (stereo not drawn) [Example 16.38, N-(1,4-dioxan-2-ylmethyl)-N-methyl-5-(3-methyl-5-{[4-(trifluoromethyl)pyrimidin-2-yl]amino}phenyl)pyridine-2-carboxamide]
